One block for each compound: values may come before it.
Key:
[1] = test system: choroid plexus epithelial cells
[2] = test system: Mrp1; design: method as in PMID 10675353; details: animals lacking Mrp1 ref 49; cited from earlier work
[3] = biological target: Mrp1 (Sus scrofa, UniProt K9IVJ9); details: 2 μM FL-MTX, CPEC; direction taken from paragraph and Figure 10B
[4] = test system: choroid plexus epithelial cells; assay: Permeability across choroid plexus epithelial cell (CPEC) monolayers on Transwell filters; details: apical versus basolateral direction
[5] = test system: intact choroid plexus tissue; details: intact choroid plexus tissue from guinea pig ref 47; cited from earlier work

Sequence of Mrp1 (Sus scrofa, UniProt K9IVJ9) (K9IVJ9 1-1532): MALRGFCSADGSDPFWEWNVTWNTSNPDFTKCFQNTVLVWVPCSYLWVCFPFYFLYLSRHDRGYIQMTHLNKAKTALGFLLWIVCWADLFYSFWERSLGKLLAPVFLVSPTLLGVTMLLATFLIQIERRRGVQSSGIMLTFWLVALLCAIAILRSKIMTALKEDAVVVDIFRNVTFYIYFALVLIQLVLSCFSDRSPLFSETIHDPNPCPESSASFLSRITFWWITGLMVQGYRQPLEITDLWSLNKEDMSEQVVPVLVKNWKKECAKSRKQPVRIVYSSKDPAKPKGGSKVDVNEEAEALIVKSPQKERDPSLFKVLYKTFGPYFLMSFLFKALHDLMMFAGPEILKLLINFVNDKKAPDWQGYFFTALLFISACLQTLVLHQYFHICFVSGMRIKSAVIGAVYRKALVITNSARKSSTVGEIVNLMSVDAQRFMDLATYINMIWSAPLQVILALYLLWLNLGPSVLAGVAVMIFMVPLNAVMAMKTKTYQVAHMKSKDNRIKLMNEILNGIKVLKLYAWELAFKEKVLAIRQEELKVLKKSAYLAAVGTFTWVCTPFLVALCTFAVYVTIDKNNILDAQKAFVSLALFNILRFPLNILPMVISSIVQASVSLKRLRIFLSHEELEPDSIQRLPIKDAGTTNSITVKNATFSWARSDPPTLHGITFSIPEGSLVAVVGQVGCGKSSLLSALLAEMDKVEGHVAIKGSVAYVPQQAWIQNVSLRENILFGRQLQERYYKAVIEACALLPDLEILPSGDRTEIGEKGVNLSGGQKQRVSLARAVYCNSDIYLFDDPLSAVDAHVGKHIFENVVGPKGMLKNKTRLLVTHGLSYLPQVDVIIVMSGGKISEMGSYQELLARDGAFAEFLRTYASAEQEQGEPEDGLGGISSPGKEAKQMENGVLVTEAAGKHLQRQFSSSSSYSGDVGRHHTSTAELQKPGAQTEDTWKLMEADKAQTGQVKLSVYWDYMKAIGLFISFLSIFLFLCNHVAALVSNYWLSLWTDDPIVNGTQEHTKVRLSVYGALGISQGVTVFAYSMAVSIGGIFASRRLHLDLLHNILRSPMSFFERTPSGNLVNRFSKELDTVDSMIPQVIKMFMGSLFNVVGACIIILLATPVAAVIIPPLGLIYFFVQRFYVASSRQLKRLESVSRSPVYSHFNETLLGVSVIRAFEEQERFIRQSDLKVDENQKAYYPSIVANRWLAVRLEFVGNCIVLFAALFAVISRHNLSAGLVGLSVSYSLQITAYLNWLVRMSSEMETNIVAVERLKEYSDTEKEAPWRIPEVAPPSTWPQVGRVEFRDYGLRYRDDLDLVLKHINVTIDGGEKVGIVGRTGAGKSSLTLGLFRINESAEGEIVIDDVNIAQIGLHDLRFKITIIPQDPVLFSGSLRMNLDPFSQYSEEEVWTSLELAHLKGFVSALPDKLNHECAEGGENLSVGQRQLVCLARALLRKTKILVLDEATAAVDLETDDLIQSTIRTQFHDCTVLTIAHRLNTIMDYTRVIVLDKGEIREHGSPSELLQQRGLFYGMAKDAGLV

effect on FL-MTX transport from the basolateral to the apical side [3]: did not significantly affect
SMILES: Nc1ccc(C(=O)NCC(=O)O)cc1 [p-aminohippuric acid]

effect on FL-MTX transport from the basolateral to the apical side [3]: did not significantly affect
SMILES: CCCN(CCC)S(=O)(=O)c1ccc(C(=O)O)cc1 [probenecid]

The remaining lines, values behind:

SMILES: O=C(O)c1ccc2c(c1)C(=O)OC21c2ccc(O)cc2Oc2cc(O)ccc21 [5-carboxyfluorescein]
Papp (apparent permeability coefficient) [1]: 45 ×10⁻⁶ cm/s | Papp with opened tight junctions versus intact monolayer [1]: nearly doubling

SMILES: COc1cc([C@@H]2c3cc4c(cc3[C@@H](O[C@@H]3O[C@@H]5CO[C@@H](C)O[C@H]5[C@H](O)[C@H]3O)[C@H]3COC(=O)[C@H]23)OCO4)cc(OC)c1O [etoposide]
accumulation in CSF [2]: increased accumulation

SMILES: COC(=O)c1ccccc1-c1c2ccc(=N)cc-2oc2cc(N)ccc12 [rhodamine 123]
preferred / directed transport across CP epithelial cells [4]: no directed transport

SMILES: CC[C@]1(O)C[C@@H]2CN(CCc3c([nH]c4ccccc34)[C@@](C(=O)OC)(c3cc4c(cc3OC)N(C)[C@H]3[C@@](O)(C(=O)OC)[C@H](OC(C)=O)[C@]5(CC)C=CCN6CC[C@]43[C@@H]65)C2)C1 [vinblastine]
influence on uptake of the Pgp substrate ritonavir [5]: not influenced
